Data on 19 molecules can be found in patent publication US20230117034A1, “PYRAZOLOTRIAZINES” (Bayer Aktiengesellschaft, priority 2019, published 2023).

The structures appear in SMILES notation.

The target of one experiment is T1, CDK9/CycT1 (Homo sapiens, UniProt P50750).
T1 construct: Recombinant full-length His-tagged human CDK9 and CycT1; purchased Life Technologies PV4131; host or cells: insect cells
The experiment in a line: CDK9/CycT1 high ATP kinase assay (TR-FRET, 2 mM ATP). It is filed as biochemical. The settings on record: 2 mM ATP (high ATP); median; read-out: CDK9/CyclinT1, 2 mM ATP (high ATP), IC50 (median). A digest of the protocol:
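Full-length His-tagged human CDK9/CycT1 (insect cell, ~0.5 μg/mL) preincubated 15 min at 22 °C with compound in Tris pH 8.0, MgCl2, DTT buffer before reaction with biotinylated peptide substrate at high ATP (2 mM).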

Another experiment deals with T2, CDK2/CycE (Homo sapiens, UniProt P24941).
T2 construct: purchased ProQinase GmbH (Freiburg, Germany); host or cells: insect cells (Sf9)
The experiment in a line: CDK2/CycE kinase assay (TR-FRET, 2 mM ATP). Conditions: 2 mM ATP (high ATP); median; read-out: CDK2/CyclinE, 2 mM ATP (high ATP), IC50 (median). It is filed as biochemical. In short, it runs like this: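 Biotin-peptide phosphorylation (0.75 µM substrate, 2 mM ATP final, 25 min, 22 °C) by Sf9-expressed GST-CDK2/GST-CycE, after a 15-min compound pre-binding step. Inhibition scaled between enzyme-free (100%) and uninhibited (0%) wells.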

In experiment [1] the target is T3, CDK12 (nuclear staining in CAL-120 cells) (Homo sapiens, UniProt Q9NYV4).
T3 construct: endogenous in cells; host or cells: CAL-120 human breast cancer cells (DSMZ ACC 459)
T3 sequence (Q9NYV4 whole entry): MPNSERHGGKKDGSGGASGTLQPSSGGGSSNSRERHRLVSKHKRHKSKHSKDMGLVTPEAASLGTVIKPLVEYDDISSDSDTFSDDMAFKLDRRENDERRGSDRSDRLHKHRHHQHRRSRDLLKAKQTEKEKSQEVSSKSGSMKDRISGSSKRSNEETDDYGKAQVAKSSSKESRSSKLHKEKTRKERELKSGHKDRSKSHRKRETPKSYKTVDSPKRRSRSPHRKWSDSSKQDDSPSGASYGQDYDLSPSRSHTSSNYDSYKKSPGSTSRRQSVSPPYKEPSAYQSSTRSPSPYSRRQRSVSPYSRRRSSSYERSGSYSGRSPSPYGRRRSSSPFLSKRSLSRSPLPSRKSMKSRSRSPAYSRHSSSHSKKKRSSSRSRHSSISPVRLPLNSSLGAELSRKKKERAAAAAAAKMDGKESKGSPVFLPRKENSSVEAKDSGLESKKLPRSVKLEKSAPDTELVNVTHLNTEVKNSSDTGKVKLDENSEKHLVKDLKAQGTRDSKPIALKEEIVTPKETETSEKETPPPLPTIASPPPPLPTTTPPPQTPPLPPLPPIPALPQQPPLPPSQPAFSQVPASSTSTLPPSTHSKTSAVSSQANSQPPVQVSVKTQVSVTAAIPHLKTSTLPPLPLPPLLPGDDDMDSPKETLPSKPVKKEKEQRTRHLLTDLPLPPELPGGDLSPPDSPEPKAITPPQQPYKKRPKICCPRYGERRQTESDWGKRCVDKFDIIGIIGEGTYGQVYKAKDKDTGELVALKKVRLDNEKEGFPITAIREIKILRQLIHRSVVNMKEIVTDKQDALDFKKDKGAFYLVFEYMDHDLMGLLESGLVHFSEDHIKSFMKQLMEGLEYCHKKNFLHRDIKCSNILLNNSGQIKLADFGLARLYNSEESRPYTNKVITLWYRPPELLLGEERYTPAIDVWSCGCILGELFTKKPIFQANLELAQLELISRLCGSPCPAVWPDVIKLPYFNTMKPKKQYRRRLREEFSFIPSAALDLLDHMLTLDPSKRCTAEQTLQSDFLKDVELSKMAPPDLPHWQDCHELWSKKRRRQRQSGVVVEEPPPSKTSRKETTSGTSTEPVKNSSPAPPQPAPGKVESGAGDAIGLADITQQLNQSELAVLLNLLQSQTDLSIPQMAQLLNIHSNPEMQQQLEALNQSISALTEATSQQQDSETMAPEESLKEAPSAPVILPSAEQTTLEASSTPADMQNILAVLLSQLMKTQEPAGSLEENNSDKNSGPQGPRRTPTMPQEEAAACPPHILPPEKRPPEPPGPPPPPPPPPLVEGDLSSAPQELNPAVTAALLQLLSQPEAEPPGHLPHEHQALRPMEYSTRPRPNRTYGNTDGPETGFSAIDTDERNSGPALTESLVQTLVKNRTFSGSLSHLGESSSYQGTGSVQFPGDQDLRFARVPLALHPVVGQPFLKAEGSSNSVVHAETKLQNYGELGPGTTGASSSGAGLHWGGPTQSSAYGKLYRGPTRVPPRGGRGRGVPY
T3 sequence (O75909 whole entry partner): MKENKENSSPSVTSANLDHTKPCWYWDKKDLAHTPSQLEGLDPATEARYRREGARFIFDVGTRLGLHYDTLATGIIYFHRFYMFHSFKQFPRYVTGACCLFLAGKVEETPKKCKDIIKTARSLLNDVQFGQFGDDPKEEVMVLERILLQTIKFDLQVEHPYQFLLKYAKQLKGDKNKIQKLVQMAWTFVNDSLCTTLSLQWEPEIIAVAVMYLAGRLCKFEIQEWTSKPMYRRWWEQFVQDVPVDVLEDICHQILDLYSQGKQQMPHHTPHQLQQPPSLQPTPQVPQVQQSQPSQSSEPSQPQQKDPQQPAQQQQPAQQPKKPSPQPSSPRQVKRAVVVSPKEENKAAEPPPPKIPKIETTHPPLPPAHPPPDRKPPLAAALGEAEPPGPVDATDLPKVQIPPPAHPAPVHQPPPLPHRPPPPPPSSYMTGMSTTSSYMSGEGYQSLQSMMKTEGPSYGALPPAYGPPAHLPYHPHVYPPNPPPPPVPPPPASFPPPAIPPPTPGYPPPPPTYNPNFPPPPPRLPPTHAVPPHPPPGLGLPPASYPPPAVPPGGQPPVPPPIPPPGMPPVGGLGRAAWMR
The experiment in a line: CDK12 nuclear protein level: immunofluorescence/high content analysis (CAL-120). The experiment is classed as cell-based. Conditions: for DC50: CAL-120 cells, 24 h, immunofluorescence, 50% reduction of nuclear CDK12 staining intensity, median, read-out: CDK12 degradation IF, DC50- [mol/l] (median); for (IC50 CDK12 high ATP) to (Degradation DC50 CDK12) ratio: ratio of IC50 CDK12 high ATP kinase assay to DC50 CDK12 degradation (IF, CAL-120). A digest of the protocol:
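DC50 is the degrader concentration that halves nuclear CDK12 immunofluorescence relative to controls, measured by high-content imaging. CAL-120 cells were exposed to compound for 24 h at 37 °C before PFA fixation, and signal was normalized to DMSO and control wells.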

T1 sequence (P50750 whole entry): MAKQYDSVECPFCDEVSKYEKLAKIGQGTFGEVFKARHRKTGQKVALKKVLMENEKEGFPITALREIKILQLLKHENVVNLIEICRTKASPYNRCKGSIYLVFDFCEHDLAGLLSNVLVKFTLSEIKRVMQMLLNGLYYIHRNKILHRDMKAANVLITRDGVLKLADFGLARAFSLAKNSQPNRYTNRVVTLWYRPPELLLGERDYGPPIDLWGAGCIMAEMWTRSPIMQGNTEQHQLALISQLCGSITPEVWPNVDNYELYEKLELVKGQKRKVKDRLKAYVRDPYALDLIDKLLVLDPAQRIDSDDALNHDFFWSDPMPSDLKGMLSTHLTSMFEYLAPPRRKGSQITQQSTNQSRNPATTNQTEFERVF
T1 sequence (O60563 whole entry partner): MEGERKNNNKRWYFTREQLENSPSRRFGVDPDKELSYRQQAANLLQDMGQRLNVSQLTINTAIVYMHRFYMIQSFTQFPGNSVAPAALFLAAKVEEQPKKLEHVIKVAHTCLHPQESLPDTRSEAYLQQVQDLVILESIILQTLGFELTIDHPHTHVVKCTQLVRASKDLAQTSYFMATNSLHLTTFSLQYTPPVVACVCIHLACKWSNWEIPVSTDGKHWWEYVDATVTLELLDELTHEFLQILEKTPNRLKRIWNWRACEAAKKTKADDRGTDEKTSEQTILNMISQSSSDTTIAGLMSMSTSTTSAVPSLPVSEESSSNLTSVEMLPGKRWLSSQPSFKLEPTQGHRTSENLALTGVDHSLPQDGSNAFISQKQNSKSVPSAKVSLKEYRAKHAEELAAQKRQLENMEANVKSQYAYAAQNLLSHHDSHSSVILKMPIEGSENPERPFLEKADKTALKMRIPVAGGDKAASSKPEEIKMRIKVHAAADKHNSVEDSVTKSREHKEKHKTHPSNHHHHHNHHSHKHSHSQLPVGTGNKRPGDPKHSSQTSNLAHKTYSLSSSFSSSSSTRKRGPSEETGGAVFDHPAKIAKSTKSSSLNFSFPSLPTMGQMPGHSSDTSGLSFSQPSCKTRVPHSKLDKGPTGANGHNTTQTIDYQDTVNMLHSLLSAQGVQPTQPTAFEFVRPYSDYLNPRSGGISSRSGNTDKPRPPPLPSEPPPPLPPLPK

`CN1CCN(c2nc(NCc3nc4ccccc4[nH]3)n3ncc(CC(F)(F)F)c3n2)CC1` [Example 436, N-[(1H-benzimidazol-2-yl)methyl]-2-(4-methylpiperazin-1-yl)-8-(2,2,2-trifluoroethyl)pyrazolo [1,5-a][1,3,5]triazin-4-amine]: the IC50 at CDK9/CycT1 is above 20000 nM. On CDK2/CycE, the IC50 is above 20000 nM. In addition, in experiment [1], the DC50 came to 14.7 nM and the “(IC50 CDK12 high ATP) to (Degradation DC50 CDK12) ratio” value is listed as above 1357.

For the molecule `Brc1cnn2c(NCc3nc4ccccc4[nH]3)nc(OCCN3CCCC3)nc12` [Example 404, N-[(1H-benzimidazol-2-yl)methyl]-8-bromo-2-[2-(pyrrolidin-1-yl)ethoxy]pyrazolo[1,5-a][1,3,5]triazin-4-amine], on CDK9/CycT1, the IC50 is above 20000 nM. The IC50 on CDK2/CycE was above 20000 nM. In addition, in experiment [1], the DC50 was found to be 114 nM and the “(IC50 CDK12 high ATP) to (Degradation DC50 CDK12) ratio” value is recorded as above 175.

In the case of `Brc1cnn2c(NCc3nc4ccccc4[nH]3)nc(N3CC4(COC4)C3)nc12` [Example 48, N-[(1H-benzimidazol-2-yl)methyl]-8-bromo-2-(2-oxa-6-azaspiro[3.3]heptan-6-yl)pyrazolo[1,5-a][1,3,5]triazin-4-amine], the IC50 on CDK9/CycT1 is above 20000 nM. Besides, at CDK2/CycE, the IC50 turned out to be 12600 nM. In experiment [1], the DC50 is 20.7 nM and the “(IC50 CDK12 high ATP) to (Degradation DC50 CDK12) ratio” value is recorded as above 276.

As for `COC(C)(C)COc1nc(NCc2nc3ccccc3[nH]2)n2ncc(Br)c2n1` [Example 403, N-[(1H-benzimidazol-2-yl)methyl]-8-bromo-2-(2-methoxy-2-methylpropoxy)pyrazolo[1,5-a][1,3,5]triazin-4-amine], the IC50 on CDK9/CycT1 is above 20000 nM. Further, at CDK2/CycE, the IC50 was above 20000 nM. In experiment [1], the DC50 is 43.1 nM and the “(IC50 CDK12 high ATP) to (Degradation DC50 CDK12) ratio” value is on record as above 464.

Regarding `COc1ccccc1-c1nnc(CNc2nc(N3CCN(C)CC3)nc3c(C4CC4(F)F)cnn23)[nH]1` (stereo not drawn) [Example 430, 8-(2,2-difluorocyclopropyl)-N-{[5-(2-methoxyphenyl)-4H-1,2,4-triazol-3-yl]methyl}-2-(4-methylpiperazin-1-yl)pyrazolo[1,5-a][1,3,5]triazin-4-amine], the IC50 at CDK9/CycT1 and on CDK2/CycE was above 20000 nM throughout. In addition, in experiment [1], the DC50 amounted to 25.3 nM. Besides, in experiment [1], the “(IC50 CDK12 high ATP) to (Degradation DC50 CDK12) ratio” value is above 789.

For `NCCOCCOCCNc1nc(NCc2nc3ccccc3[nH]2)n2ncc(Br)c2n1` [Example 412, N2-{2-[2-(2-aminoethoxy)ethoxy]ethyl}-N4-[(1H-benzimidazol-2-yl)methyl]-8-bromopyrazolo[1,5-a][1,3,5]triazine-2,4-diamine], the IC50 on CDK9/CycT1 and at CDK2/CycE was above 20000 nM in each case. The DC50 in experiment [1] was found to be 77.4 nM. For the same molecule, in experiment [1], the “(IC50 CDK12 high ATP) to (Degradation DC50 CDK12) ratio” value is on record as above 74.

For the molecule `Fc1ccc(-c2nnc(CNc3nc(N4CCOCC4)nc4c(Br)cnn34)[nH]2)c(F)c1` [Example 41, 8-bromo-N-{[5-(2,4-difluorophenyl)-4H-1,2,4-triazol-3-yl]methyl}-2-(morpholin-4-yl)pyrazolo[1,5-a][1,3,5]triazin-4-amine], the IC50 is above 20000 nM at CDK9/CycT1 and above 1630 nM on CDK2/CycE. Besides, the DC50 in experiment [1] amounted to 4.06 nM.

With `Clc1cc2nc(CNc3nc(N4CCOCC4)nc4c(-c5cscn5)cnn34)[nH]c2cc1Cl` [Example 424, N-[(5,6-dichloro-1H-benzimidazol-2-yl)methyl]-2-(morpholin-4-yl)-8-(1,3-thiazol-4-yl)pyrazolo [1,5-a][1,3,5]triazin-4-amine], on CDK9/CycT1, the IC50 is above 20000 nM. Further, at CDK2/CycE, the IC50 was above 20000 nM. Further, in experiment [1], the DC50 was 38.1 nM and the “(IC50 CDK12 high ATP) to (Degradation DC50 CDK12) ratio” value was above 524.

Regarding `FC(F)n1cc(-c2cnn3c(NCc4nc5ccccc5[nH]4)nc(N4CCOCC4)nc23)cn1` [Example 421, N-[(1H-benzimidazol-2-yl)methyl]-8-[1-(difluoromethyl)-1H-pyrazol-4-yl]-2-(morpholin-4-yl)pyrazolo[1,5-a][1,3,5]triazin-4-amine], the IC50 at CDK9/CycT1 is above 20000 nM. At CDK2/CycE, the IC50 was above 20000 nM. Moreover, in experiment [1], the DC50 stood at 21.6 nM and the “(IC50 CDK12 high ATP) to (Degradation DC50 CDK12) ratio” value is 397.

For `O=C(O)C(F)(F)F.c1ccc2[nH]c(CNc3nc(N4CCOCC4)nc4c(-c5cncs5)cnn34)nc2c1` [Example 441, trifluoroacetic acid-N-[(1H-benzimidazol-2-yl)methyl]-2-(morpholin-4-yl)-8-(1,3-thiazol-5-yl)pyrazolo[1,5-a][1,3,5]triazin-4-amine (1/1)], at CDK9/CycT1, the IC50 was above 20000 nM. Moreover, the IC50 on CDK2/CycE was above 20000 nM. Besides, in experiment [1], the DC50 worked out at 6.18 nM and the “(IC50 CDK12 high ATP) to (Degradation DC50 CDK12) ratio” value stood at 676.

As for `CCc1cnn2c(NCc3nc4c(F)c(F)ccc4[nH]3)nc(N3CCOCC3)nc12` [Example 432, N-[(4,5-difluoro-1H-benzimidazol-2-yl)methyl]-8-ethyl-2-(morpholin-4-yl)pyrazolo[1,5-a][1,3,5]triazin-4-amine], the IC50 at CDK9/CycT1 is 15700 nM; on CDK2/CycE, 7570 nM. Further, the DC50 in experiment [1] was 0.948 nM. Besides, in experiment [1], the “(IC50 CDK12 high ATP) to (Degradation DC50 CDK12) ratio” value turned out to be 2425.

`CC1(C)CN(c2nc(NCc3nc4ccccc4[nH]3)n3ncc(Br)c3n2)CCO1` [Example 58, N-[(1H-benzimidazol-2-yl)methyl]-8-bromo-2-(2,2-dimethylmorpholin-4-yl)pyrazolo[1,5-a][1,3,5]triazin-4-amine]: the IC50 at CDK9/CycT1 is above 20000 nM. Further, the IC50 at CDK2/CycE was 10700 nM. Also, in experiment [1], the DC50 amounted to 26.1 nM and the “(IC50 CDK12 high ATP) to (Degradation DC50 CDK12) ratio” value is 246.

Regarding `CCc1cnn2c(NCc3nc4c(OC)cccc4[nH]3)nc(N3CCOCC3)nc12` [Example 433, 8-ethyl-N-[(4-methoxy-1H-benzimidazol-2-yl)methyl]-2-(morpholin-4-yl)pyrazolo[1,5-a][1,3,5]triazin-4-amine], on CDK9/CycT1, the IC50 was above 20000 nM. For the same molecule, at CDK2/CycE, the IC50 is 1780 nM. In experiment [1], the DC50 came to 4.32 nM and the “(IC50 CDK12 high ATP) to (Degradation DC50 CDK12) ratio” value is on record as 626.

In the case of `CCc1cnn2c(NCc3nc4ccccc4[nH]3)nc(N3CCN(C)CC3)nc12` [Example 434, N-[(1H-benzimidazol-2-yl)methyl]-8-ethyl-2-(4-methylpiperazin-1-yl)pyrazolo[1,5-a][1,3,5] triazin-4-amine], the IC50 at CDK9/CycT1 was above 20000 nM. For the same molecule, at CDK2/CycE, the IC50 was 6370 nM. In experiment [1], the DC50 is 5 nM and the “(IC50 CDK12 high ATP) to (Degradation DC50 CDK12) ratio” value is listed as above 3530.

Turning to `CC(C)c1cnn2c(NCc3ncc(-c4ccccc4)[nH]3)nc(N3CCCCC3)nc12` [Example 36, N-[(5-phenyl-1H-imidazol-2-yl)methyl]-2-(piperidin-1-yl)-8-(propan-2-yl)pyrazolo[1,5-a][1,3,5]triazin-4-amine], the IC50 at CDK9/CycT1 was above 20000 nM. For the same molecule, at CDK2/CycE, the IC50 was above 20000 nM. For the same molecule, in experiment [1], the DC50 came to 86.5 nM and the “(IC50 CDK12 high ATP) to (Degradation DC50 CDK12) ratio” value is given as above 231.

`Fc1ccc2[nH]c(CNc3nc(N4CCOCC4)nc4c(-c5ccnnc5)cnn34)nc2c1F` [Example 417, N-[(4,5-difluoro-1H-benzimidazol-2-yl)methyl]-2-(morpholin-4-yl)-8-(pyridazin-4-yl)pyrazolo[1,5-a][1,3,5]triazin-4-amine]: at CDK9/CycT1, the IC50 was above 1630 nM. The IC50 on CDK2/CycE is above 20000 nM. Moreover, in experiment [1], the DC50 was found to be 2.75 nM and the “(IC50 CDK12 high ATP) to (Degradation DC50 CDK12) ratio” value was above 2815.

Take `Cn1cc(-c2cnn3c(NCc4nc5c(F)c(F)ccc5[nH]4)nc(N4CCOCC4)nc23)cn1` [Example 418, N-[(4,5-difluoro-1H-benzimidazol-2-yl)methyl]-8-(1-methyl-1H-pyrazol-4-yl)-2-(morpholin-4-yl)pyrazolo[1,5-a][1,3,5]triazin-4-amine]: the IC50 at CDK9/CycT1 was above 20000 nM. Also, the IC50 on CDK2/CycE is above 20000 nM. In addition, in experiment [1], the DC50 stood at 39 nM and the “(IC50 CDK12 high ATP) to (Degradation DC50 CDK12) ratio” value is above 513.

As to `Brc1cnn2c(NCc3nc4ccccc4[nH]3)nc(OC3CCNCC3)nc12` [Example 411, N-[(1H-benzimidazol-2-yl)methyl]-8-bromo-2-[(piperidin-4-yl)oxy]pyrazolo[1,5-a][1,3,5]triazin-4-amine], the IC50 on CDK9/CycT1 is above 20000 nM. On CDK2/CycE, the IC50 was found to be 16300 nM. Besides, in experiment [1], the DC50 is 44.8 nM and the “(IC50 CDK12 high ATP) to (Degradation DC50 CDK12) ratio” value is above 446.

Take `Fc1cccc(-c2nnc(CNc3nc(N4CCOCC4)nc4c(Br)cnn34)[nH]2)c1` [Example 44, 8-bromo-N-{[5-(3-fluorophenyl)-4H-1,2,4-triazol-3-yl]methyl}-2-(morpholin-4-yl)pyrazolo[1,5-a][1,3,5]triazin-4-amine]: the IC50 is 885 nM on CDK9/CycT1 and 1130 nM at CDK2/CycE. Besides, in experiment [1], the DC50 was 1.71 nM. Moreover, the “(IC50 CDK12 high ATP) to (Degradation DC50 CDK12) ratio” value in experiment [1] came out at 871.
